Assays:
Dipeptidyl peptidase 2 = Dipeptidyl peptidase 2 (Homo sapiens, UniProt Q9UHL4); assay: Inhibitory activity against recombinant DPP2
Prolyl endopeptidase FAP = biological target: T1, Prolyl endopeptidase FAP (Homo sapiens, UniProt Q12884); assay: Inhibitory activity against recombinant seprase
T1 sequence (Q12884 whole entry): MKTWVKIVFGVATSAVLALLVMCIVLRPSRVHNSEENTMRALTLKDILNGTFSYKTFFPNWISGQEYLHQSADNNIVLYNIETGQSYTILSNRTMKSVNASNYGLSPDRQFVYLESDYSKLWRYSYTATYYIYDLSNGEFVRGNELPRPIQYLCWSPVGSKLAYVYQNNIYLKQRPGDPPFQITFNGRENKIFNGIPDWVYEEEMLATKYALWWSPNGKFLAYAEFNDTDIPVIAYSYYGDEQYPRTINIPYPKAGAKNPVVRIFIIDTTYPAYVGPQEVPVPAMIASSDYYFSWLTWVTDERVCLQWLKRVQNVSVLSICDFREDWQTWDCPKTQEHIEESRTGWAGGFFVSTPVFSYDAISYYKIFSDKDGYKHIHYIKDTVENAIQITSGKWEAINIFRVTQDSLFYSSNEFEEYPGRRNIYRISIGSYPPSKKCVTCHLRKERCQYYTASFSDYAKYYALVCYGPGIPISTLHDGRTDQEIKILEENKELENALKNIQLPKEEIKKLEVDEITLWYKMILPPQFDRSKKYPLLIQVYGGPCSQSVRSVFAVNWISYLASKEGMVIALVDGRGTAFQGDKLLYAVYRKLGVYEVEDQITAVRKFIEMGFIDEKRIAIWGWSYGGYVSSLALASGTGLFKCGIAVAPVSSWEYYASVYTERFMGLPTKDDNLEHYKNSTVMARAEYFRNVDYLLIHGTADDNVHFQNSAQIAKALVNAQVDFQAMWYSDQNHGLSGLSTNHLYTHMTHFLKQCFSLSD

Homo sapiens = species: Homo sapiens; assay: Inhibition of cytochrome P450
[1] = Half life in rat; assay type: ADME, organism-based; conditions: in vivo
[2] = Half life in dog; assay type: ADME, organism-based, Canis lupus familiaris; conditions: in vivo
[3] = Oral bioavailability in rat, po; assay type: ADME, organism-based; conditions: in vivo
Canis familiaris = assay: Gastro-Intestinal toxicity in dog at 10 mg/kg, po; assay type: organism-based, Canis lupus familiaris; set-up: dose 10 mg/kg, route oral; conditions: in vivo
[4] = Half life cyclization at 37 C, pH 7.2; assay type: ADME
[5] = Oral bioavailability in dog; assay type: ADME, organism-based, Canis lupus familiaris; conditions: in vivo
[6] = Oral bioavailability in rat; assay type: ADME, organism-based; conditions: in vivo

Ki (Dipeptidyl peptidase 2) | Ki (Prolyl endopeptidase FAP) | Structure (SMILES) | further results
> 22.4 µM | > 23.4 µM | CC(C)([C@H](N)C(=O)N1C[C@@H](F)C[C@H]1C#N)S(=O)(=O)Cc1ccccc1 | 
 | > 23.4 µM | COc1ccc(CSC(C)(C)[C@H](N)C(=O)N2C[C@@H](F)C[C@H]2C#N)cc1 | 
> 22.4 µM |  | CC(=O)NCSC(C)(C)[C@H](N)C(=O)N1C[C@@H](F)C[C@H]1C#N | 
> 22.4 µM | > 23.4 µM | Cc1ccc(CS(=O)(=O)C(C)(C)[C@H](N)C(=O)N2C[C@@H](F)C[C@H]2C#N)cc1 | 
> 22.4 µM | > 23.4 µM | COc1ccc(C[S+]([O-])C(C)(C)[C@H](N)C(=O)N2C[C@@H](F)C[C@H]2C#N)cc1 (stereo partly drawn) | 
> 22.4 µM |  | CC(C)(SCc1ccccn1)[C@H](N)C(=O)N1C[C@@H](F)C[C@H]1C#N | 
> 22.4 µM | > 23.4 µM | COc1ccc(CS(=O)(=O)C(C)(C)[C@H](N)C(=O)N2C[C@@H](F)C[C@H]2C#N)cc1 | IC50 (Homo sapiens): > 15 µM; half-life [1]: 2.3 h; half-life [2]: 3.9 h
> 22.4 µM | > 23.4 µM | CC(C)(SCc1cccnc1)[C@H](N)C(=O)N1C[C@@H](F)C[C@H]1C#N | 
> 22.4 µM |  | COc1cccc(CS(=O)(=O)C(C)(C)[C@H](N)C(=O)N2C[C@@H](F)C[C@H]2C#N)c1 | 
 | > 23.4 µM | CC(C)(SCc1ccc(C(F)(F)F)cc1)[C@H](N)C(=O)N1C[C@@H](F)C[C@H]1C#N | 
> 22.4 µM |  | CC(C)([C@H](N)C(=O)N1C[C@@H](F)C[C@H]1C#N)S(=O)(=O)Cc1ccc(-c2ccccc2)cc1 | 
> 22.4 µM | > 23.4 µM | CC(C)([C@H](N)C(=O)N1C[C@@H](F)C[C@H]1C#N)S(=O)(=O)CCCc1ccccc1 | 
> 22.4 µM |  | CC(C)([C@H](N)C(=O)N1C[C@@H](F)C[C@H]1C#N)S(=O)(=O)Cc1cccc(Oc2ccccc2)c1 | 
> 22.4 µM |  | COc1ccccc1CS(=O)(=O)C(C)(C)[C@H](N)C(=O)N1C[C@@H](F)C[C@H]1C#N | 
 | > 23.4 µM | CC(C)(SCCc1ccccc1)[C@H](N)C(=O)N1C[C@@H](F)C[C@H]1C#N | 
> 22.4 µM | > 23.4 µM | CC(C)([C@H](N)C(=O)N1C[C@@H](F)C[C@H]1C#N)S(=O)(=O)Cc1ccncc1 | 
> 22.4 µM | > 23.4 µM | CC(C)([C@H](N)C(=O)N1C[C@@H](F)C[C@H]1C#N)S(=O)(=O)Cc1ccc(F)cc1 | 
 | > 23.4 µM | CC(C)([C@H](N)C(=O)N1C[C@@H](F)C[C@H]1C#N)S(=O)(=O)Cc1ccc(S(C)(=O)=O)cc1 | bioavailability [3]: < 5%
> 22.4 µM |  | CC(=O)Nc1ccc(CS(=O)(=O)C(C)(C)[C@H](N)C(=O)N2C[C@@H](F)C[C@H]2C#N)cc1 | 
> 22.4 µM |  | CC(C)(SCc1ccncc1)[C@H](N)C(=O)N1C[C@@H](F)C[C@H]1C#N | 
> 22.4 µM |  | CC(C)([C@H](N)C(=O)N1C[C@@H](F)C[C@H]1C#N)S(=O)(=O)O | 
> 22.4 µM |  | CC(C)([C@H](N)C(=O)N1C[C@@H](F)C[C@H]1C#N)S(=O)(=O)Cc1ccc(C#N)cc1 | Activity (Canis familiaris): Toxic
> 22.4 µM |  | CC(C)([C@H](N)C(=O)N1C[C@@H](F)C[C@H]1C#N)S(=O)(=O)Cc1csc2ccc(Cl)cc12 | 
 |  | COc1ccc(CS(=O)(=O)C(C)(C)[C@H](N)C(=O)N2CCC[C@H]2C#N)cc1 | half-life [4]: 360 h; IC50 (Homo sapiens): > 15 µM; half-life [1]: 4.2 h; bioavailability [5]: 100%; bioavailability [6]: 4%; half-life [2]: 3 h
> 22.4 µM |  | CC(C)([C@H](N)C(=O)N1C[C@@H](F)C[C@H]1C#N)S(=O)(=O)Cc1ccc(OCc2ccccc2)cc1 | 

— ChEMBL document CHEMBL1141969, “2-Cyano-4-fluoro-1-thiovalylpyrrolidine analogues as potent inhibitors of DPP-IV” (Bioorg Med Chem Lett, 2005)
